Converted amounts (≈) assume the structure as drawn.

As a reminder, the MIC is the least concentration at which growth counts as inhibited.

Type in all cases: cell-based
Experiment [1] deals with E. coli emrY knockout strain. The experiment can be described thus: MIC, efflux pump knockout emrY. To be noted: Escherichia coli, read-out: MIC emrY. The method, then: (§1) The inoculum used for all the experiments is derived from a single seed lot that is maintained as glycerol stocks at −80 °C and are sub cultured on LB plate for isolated colonies. Single colony of each strain is grown in M9 medium. All test compound stocks and dilutions are prepared in DMSO. Serial two-fold dilutions of compounds are prepared separately, with the concentrations ranging from 2 mg/mL to 0.015 mg/mL. To 150 µl (3–7 × 10^5 CFU/ml) of bacterial culture in 96 well microtitre plates, 3 μL compound from each of the dilutions is added to respective wells to obtain final concentrations ranging from 40 µg/mL to 0.3 µg/mL of the test compounds. Media control, culture control and appropriate reference drug controls are included. […] Growth is monitored by checking absorbance at 600 nm (A600). […] The samples from MIC and above concentrations are plated for MBC (Minimum Bactericidal Concentration). The samples are diluted 1:10 and plated on LB agar plates. […] The killing kinetics is determined by enumerating survivors at various time points following compound exposure. E. coli cells (~10^7 CFU/ml; A600 of 0.1) are treated with various concentrations (40 µg/mL to 0.3 µg/mL) of compounds in a 96-well microtitre plate. […] Data is expressed as the log10 CFU for each drug treatment.

The test system of another experiment is WT E. coli. Kind of experiment: MIC on WT E. coli in the presence of PAβN. As to conditions: Escherichia coli. The method, then:
as §1

Experiment [2] has as its system E. coli mdfA knockout strain. The experiment can be described thus: MIC, efflux pump knockout mdfA. To be noted: Escherichia coli, read-out: MIC mdfA. As for the experimental part: as §1
Experiment [3] deals with E. coli acrZ knockout strain. Kind of experiment: MIC, efflux pump knockout acrZ. To be noted: Escherichia coli, read-out: MIC acrZ. As for the experimental part: as §1
The test system of experiment [4] is E. coli emrE knockout strain. The experiment can be described thus: MIC, efflux pump knockout emrE. As to conditions: Escherichia coli, read-out: MIC emrE. The method, then:
as §1

For experiment [5], the system named is E. coli mdtB knockout strain. The experiment can be described thus: MIC, efflux pump knockout mdtB. As to conditions: Escherichia coli, read-out: MIC mdtB. The method, then: as §1
The test system of experiment [6] is E. coli mdtG knockout strain. The experiment can be described thus: MIC, efflux pump knockout mdtG. To be noted: Escherichia coli, read-out: MIC mdtG. As for the experimental part:
as §1

In experiment [7] the test system is E. coli yciM knockout strain. The experiment can be described thus: MIC, efflux pump knockout yciM. As to conditions: Escherichia coli, read-out: MIC yciM. The method, then: as §1
Experiment [8] relates to E. coli macB knockout strain. The experiment can be described thus: MIC, efflux pump knockout macB. To be noted: Escherichia coli, read-out: MIC macB. As for the experimental part:
as §1

The test system of experiment [9] is E. coli mdtK knockout strain. The experiment can be described thus: MIC, efflux pump knockout mdtK. As to conditions: Escherichia coli, read-out: MIC mdtK. As for the experimental part: as §1
Experiment [10] deals with Shigella sonnei clinical strain. The experiment can be described thus: MIC, Shigella sonnei. The method, then:
as §1

In the case of `Cc1sc(NC(=O)c2ccc([N+](=O)[O-])s2)nc1-c1ccccc1` [compound 7, N-(5-Methyl-4-phenylthiazol-2-yl)-5-nitrothiophene-2-carboxamide], the MIC in [1] was more than 40 µg/mL; in the experiment with WT E. coli, less than 0.3 µg/mL; in experiment [2], more than 40 µg/mL; in experiment [3] it was more than 40 µg/mL; in [4], more than 40 µg/mL; in experiment [5] it was more than 40 µg/mL. The MIC in experiment [6], in experiment [7], in [8] and in experiment [9] was more than 40 µg/mL throughout.

`O=C(Nc1nc(-c2ccc(F)cc2F)cs1)c1ccc([N+](=O)[O-])s1` [compound 12, N-(4-(2,4-difluorophenyl)thiazol-2-yl)-5-nitrothiophene-2-carboxamide] showed an MIC Shigella sonnei in experiment [10] of 5 µg/mL (≈ 13.6 µM).

These data come from PMC5940854, “Nitrothiophene carboxamides, a novel narrow spectrum antibacterial series: Mechanism of action and Efficacy” (Scientific Reports, 2018).
